Here are results for 41 compounds from ChEMBL document CHEMBL2157884, “Scaffold-hopping with zwitterionic CCR3 antagonists: identification and optimisation of a series with good potency and pharmacokinetics leading to the discovery of AZ12436092” (Bioorg Med Chem Lett, 2012).

What is called logD is the decadic logarithm of the distribution of all forms, ionised or not, between an organic phase and buffer at a given pH. One may read the microsomal CLint as a measure of how fast metabolising enzymes remove a compound, apart from limits set by blood flow. Higher therefore signals rapid turnover. What is called half-life is how long it takes for the measured level to halve. One may read the bioavailability as the share of a dose that reaches the circulation, judged against a reference dose that is usually intravenous. As usually defined, the CLint scaled is the rate of metabolic loss divided by the concentration. Lower therefore signals greater metabolic stability.

A value given as a limit tells only on which side of the number the result lay.

A short description of one data set: physchem. The settings on record: buffer, pH 7.4.
Another data set is described as follows: in vitro. The settings on record: human.
The next data set in a line: in vivo. The settings on record: rat, iv.
The next data set relates to Hepatocyte. The data set is described as follows: Intrinsic clearance in rat hepatocytes measured per 10^6 cells. The format is ADME, cell-based.
A short description of data set [1]: Oral bioavailability in rat. The settings on record: in vivo. The format is ADME, organism-based.
Data set [2] can be described thus: Half life in iv dosed dog. The format is ADME, organism-based, Canis lupus familiaris. The settings on record: in vivo.
A short description of data set [3]: Oral bioavailability in dog. The format is ADME, organism-based, Canis lupus familiaris. The settings on record: in vivo.

For `N#Cc1ccccc1C[C@@H](C(=O)O)N1CCC(CN2CCC(Oc3ccc(Cl)c(Cl)c3)CC2)CC1`, the logD in the data set “physchem” came to 2.1. The same compound came in with a microsomal CLint in the data set “in vitro” (microsomes) of 6 µL/min/mg.

Turning to `N#Cc1cccc(C[C@@H](C(=O)O)N2CCC(CN3CCC(Oc4ccc(Cl)c(Cl)c4)CC3)CC2)c1`, in the data set “physchem”, the logD was 2.3. Also, in “in vitro” (liver microsomes), the microsomal CLint is less than 5 µL/min/mg.

Regarding `N#Cc1ccc(C[C@@H](C(=O)O)N2CCC(CN3CCC(Oc4ccc(Cl)c(Cl)c4)CC3)CC2)cc1`, the pH-dependent lipophilicity (logD) in “physchem” was 2.2. Turning to `Cc1ccccc1C[C@@H](C(=O)O)N1CCC(CN2CCC(Oc3ccc(Cl)c(Cl)c3)CC2)CC1`, in “physchem”, the logD was 2.5. In the data set “in vitro” (liver microsomes), this compound returned a microsomal CLint of less than 3 µL/min/mg.

`Cc1cccc(C[C@@H](C(=O)O)N2CCC(CN3CCC(Oc4ccc(Cl)c(Cl)c4)CC3)CC2)c1` registered a logD in the data set “physchem” of 2.8. Moreover, the intrinsic metabolic clearance (microsomal CLint) in “in vitro” (liver microsomes) is less than 6 µL/min/mg. As for `Cc1ccc(C[C@@H](C(=O)O)N2CCC(CN3CCC(Oc4ccc(Cl)c(Cl)c4)CC3)CC2)cc1`, in the data set “physchem”, the logD was 3. This compound had an intrinsic clearance (microsomal CLint) in the data set “in vitro” (liver microsomes) of 14 µL/min/mg. In the case of `COc1ccccc1C[C@@H](C(=O)O)N1CCC(CN2CCC(Oc3ccc(Cl)c(Cl)c3)CC2)CC1`, the logD in the data set “physchem” came to 2.8. The same compound registered a microsomal CLint in “in vitro” (liver microsomes) of 8 µL/min/mg. In turn, `O=C(O)[C@H](Cc1cccc(C(F)(F)F)c1)N1CCC(CN2CCC(Oc3ccc(Cl)c(Cl)c3)CC2)CC1` yielded a microsomal CLint in “in vitro” (liver microsomes) of 7 µL/min/mg. In the case of `O=C(O)[C@H](Cc1ccc(F)cc1)N1CCC(CN2CCC(Oc3ccc(Cl)cc3)CC2)CC1`, in the data set “physchem”, the logD was 1.9. Same read-out and setting: under `Cc1cc(Cl)ccc1OC1CCN(CC2CCN([C@@H](Cc3ccc(F)cc3)C(=O)O)CC2)CC1` stands 2.5. Regarding `Cc1cc(F)ccc1OC1CCN(CC2CCN([C@@H](Cc3ccc(F)cc3)C(=O)O)CC2)CC1`, the microsomal CLint in the data set “in vitro” (liver microsomes) was less than 3 µL/min/mg.

Turning to `Cc1c(Cl)ccc(OC2CCN(CC3CCN([C@@H](Cc4ccc(F)cc4)C(=O)O)CC3)CC2)c1Cl`, the half-life in “in vivo” was 48 min. Besides, the logD in the data set “physchem” worked out at 3.2. Also, in “in vitro” (liver microsomes), the microsomal CLint is less than 3 µL/min/mg. Compound `Cc1c(OC2CCN(CC3CCN([C@@H](Cc4ccc(F)cc4)C(=O)O)CC3)CC2)ccc(Cl)c1Cl` gave a CLH with Hepatocyte of less than 3 µL/min/1e6 cells. In addition, the half-life in the data set “in vivo” is 600 min. This compound gave a logD in the data set “physchem” of 3.5. Moreover, the microsomal CLint in the data set “in vitro” (liver microsomes) was less than 3 µL/min/mg. Take `Cc1c(OC2CCN(CC3CCN([C@@H](Cc4ccc(F)cc4)C(=O)O)CC3)CC2)ccc(C#N)c1Cl`: in the data set “physchem”, the logD stood at 2.2. Moreover, the microsomal CLint in the data set “in vitro” (microsomes) stood at 6 µL/min/mg. Take `Cc1c(OC2CCN(CC3CCN([C@@](C)(Cc4ccc(F)cc4)C(=O)O)CC3)CC2)ccc(Cl)c1Cl`: the logD in “physchem” stood at 3. Take `Cc1cc(Cl)ccc1OC1CCN(CC2CCN([C@@](C)(Cc3ccc(F)cc3)C(=O)O)CC2)CC1`: the bioavailability in data set [1] stood at 52%; in data set [3] it was 83%. The half-life in the data set “in vivo” was 522 min; in data set [2], 720 min. The compound also came in with a logD in “physchem” of 2.6. Consider `Cc1cc(OC2CCN(CC3CCN([C@@](C)(Cc4ccc(F)cc4)C(=O)O)CC3)CC2)ccc1Cl`, for which the bioavailability in data set [1] was 84%. Besides, the pH-dependent lipophilicity (logD) in the data set “physchem” was 2.1.

In data set [1], `Cc1cc(F)ccc1OC1CCN(CC2CCN([C@@](C)(Cc3ccc(F)cc3)C(=O)O)CC2)CC1` had a bioavailability of 24%. The same compound had a logD in “physchem” of 2. For the compound `Cc1ccc(S(=O)(=O)NC(=O)N2CCC(N3CCC(Oc4ccc(Cl)c(Cl)c4)CC3)CC2)cc1`, the bioavailability in data set [1] is 30%. In “in vivo”, this compound showed a half-life of 162 min. The CLint scaled in “in vitro” (liver microsomes) was 1 mL/min/kg.

Consider `O=C(O)[C@H](c1ccccc1)N1CCC(CN2CCC(Oc3ccc(Cl)c(Cl)c3)CC2)CC1`, for which the CLint scaled in “in vitro” (microsomes) is less than 3 mL/min/kg.

As to `O=C(O)[C@@H](c1ccccc1)N1CCC(CN2CCC(Oc3ccc(Cl)c(Cl)c3)CC2)CC1`, in data set [1], the bioavailability is 5%. The half-life in the data set “in vivo” was 288 min. The compound further gave a CLint scaled in “in vitro” (microsomes) of less than 3 mL/min/kg. `O=C(O)c1ccccc1N1CCC(CN2CCC(Oc3ccc(Cl)c(Cl)c3)CC2)CC1`: the bioavailability in data set [1] came out at 58%. Further, the half-life in “in vivo” was 246 min. In addition, the logD in the data set “physchem” was found to be 2.8.

In turn, `O=C(O)c1cccc(N2CCC(CN3CCC(Oc4ccc(Cl)c(Cl)c4)CC3)CC2)c1` showed a logD in the data set “physchem” of 2.2. Consider `O=C(O)c1ccc(N2CCC(CN3CCC(Oc4ccc(Cl)c(Cl)c4)CC3)CC2)cc1`, for which the logD in the data set “physchem” is 2.3. As to `O=C(O)Cc1cccc(N2CCC(CN3CCC(Oc4ccc(Cl)c(Cl)c4)CC3)CC2)c1`, the logD in “physchem” was 1.6. On the same count and under the same terms, under `O=C(O)Cc1ccc(N2CCC(CN3CCC(Oc4ccc(Cl)c(Cl)c4)CC3)CC2)cc1` stands 1.8; under `O=C(O)COc1ccccc1N1CCC(CN2CCC(Oc3ccc(Cl)c(Cl)c3)CC2)CC1`, 2. Compound `O=C(O)COc1cccc(N2CCC(CN3CCC(Oc4ccc(Cl)c(Cl)c4)CC3)CC2)c1` showed a logD in “physchem” of 2. In “physchem”, `O=C(O)c1ccc(CN2CCC(CN3CCC(Oc4ccc(Cl)c(Cl)c4)CC3)CC2)cc1` yielded a logD of 1.1.

`O=C(O)c1cccnc1N1CCC(CN2CCC(Oc3ccc(Cl)c(Cl)c3)CC2)CC1` came in with a logD in the data set “physchem” of 1.7. Regarding `O=C(O)[C@H](Cc1ccccc1)N1CCC(CN2CCC(Oc3ccc(Cl)c(Cl)c3)CC2)CC1`, in data set [1], the bioavailability worked out at 62%. Also, in “in vivo”, the half-life is 720 min. The compound further came in with a logD in “physchem” of 2.5. Moreover, the microsomal CLint in “in vitro” (liver microsomes) was less than 3 µL/min/mg. Compound `O=C(O)[C@@H](Cc1ccccc1)N1CCC(CN2CCC(Oc3ccc(Cl)c(Cl)c3)CC2)CC1` came in with a logD in “physchem” of 2.5. Moreover, the microsomal CLint in the data set “in vitro” (liver microsomes) is less than 3 µL/min/mg.

In the data set “in vitro” (liver microsomes), `O=C(O)[C@H](Cc1ccccc1Cl)N1CCC(CN2CCC(Oc3ccc(Cl)c(Cl)c3)CC2)CC1` had a microsomal CLint of less than 5 µL/min/mg. On to `O=C(O)[C@H](Cc1ccc(Cl)cc1)N1CCC(CN2CCC(Oc3ccc(Cl)c(Cl)c3)CC2)CC1`, for which the logD in “physchem” was 2.9. In the data set “in vitro” (liver microsomes), this compound returned a microsomal CLint of less than 3 µL/min/mg. On to `O=C(O)[C@H](Cc1ccccc1F)N1CCC(CN2CCC(Oc3ccc(Cl)c(Cl)c3)CC2)CC1`, for which the logD in the data set “physchem” amounted to 2.6. In the data set “physchem”, `O=C(O)[C@H](Cc1cccc(F)c1)N1CCC(CN2CCC(Oc3ccc(Cl)c(Cl)c3)CC2)CC1` had a logD of 2.7. In “physchem”, `O=C(O)[C@H](Cc1ccc(F)cc1)N1CCC(CN2CCC(Oc3ccc(Cl)c(Cl)c3)CC2)CC1` returned a logD of 2.6. The compound also showed a microsomal CLint in the data set “in vitro” (liver microsomes) of 4 µL/min/mg. `O=C(O)C(c1ccccc1)N1CCCC(CN2CCC(Oc3ccc(Cl)c(Cl)c3)CC2)C1` (mixture of isomers) registered a CLint scaled in the data set “in vitro” (liver microsomes) of less than 3 mL/min/kg. With `O=C(O)C(c1ccccc1)N1CCO[C@H](CN2CCC(Oc3ccc(Cl)c(Cl)c3)CC2)C1` (mixture of isomers), the bioavailability in data set [1] amounted to 36%. As to `O=C(O)C(c1ccccc1)N1CCC(N2CCC(Oc3ccc(Cl)c(Cl)c3)CC2)CC1` (racemic), the bioavailability in data set [1] was 13%. In the data set “in vivo”, this compound had a half-life of 144 min. For the same compound, in the data set “in vitro” (liver microsomes), the CLint scaled was 6 mL/min/kg. `O=C(O)C(c1ccccc1)N1CCC(CN2CCC(Oc3ccc(Cl)c(Cl)c3)CC2)CC1` (racemic) had a CLint scaled in “in vitro” (microsomes) of less than 3 mL/min/kg.
